Results on 33 compounds are retold here after ChEMBL document CHEMBL2396555, “Synthesis and acrosin inhibitory activities of 5-phenyl-1H-pyrazole-3-carboxylic acid amide derivatives” (Bioorg Med Chem Lett, 2013).

The target of the assay is Acrosin (Homo sapiens, UniProt P10323). The assay is described as follows: Inhibition of human sperm acrosin using BAPNA as substrate after 3 hrs by spectrophotometric analysis.
Acrosin, sequence (P10323 20-42 limits assumed): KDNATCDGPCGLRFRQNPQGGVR
Acrosin, sequence (P10323 43-343 limits assumed): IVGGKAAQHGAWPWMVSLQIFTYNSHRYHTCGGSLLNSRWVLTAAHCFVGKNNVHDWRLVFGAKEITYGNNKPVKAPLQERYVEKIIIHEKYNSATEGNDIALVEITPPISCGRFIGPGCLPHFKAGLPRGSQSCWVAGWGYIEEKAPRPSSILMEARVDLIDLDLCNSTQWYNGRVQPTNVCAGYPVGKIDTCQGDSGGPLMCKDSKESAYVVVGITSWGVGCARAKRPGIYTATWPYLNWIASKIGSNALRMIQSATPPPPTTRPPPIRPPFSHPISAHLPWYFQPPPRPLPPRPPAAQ

For `O=C(c1cc(-c2cccc([N+](=O)[O-])c2)[nH]n1)N(CCO)CCO`, the half-maximal inhibitory concentration (IC50) (in general, the midpoint of a concentration-inhibition curve) is 2400 µM.
`O=C(NC(CO)(CO)CO)c1cc(-c2cccc([N+](=O)[O-])c2)[nH]n1` had an IC50 of 760 µM.
As for `O=C(c1cc(-c2ccccc2)[nH]n1)N(CCO)CCO`, the figure is 1700 µM; as for `CC(O)CNC(=O)c1cc(-c2ccc(Br)cc2)[nH]n1` (stereo not drawn), 330 µM.
The compound `O=C(NCCCO)c1cc(-c2ccc(Br)cc2)[nH]n1` came in with a 50% inhibitory concentration (IC50) of 380 µM.
As for `CC(C)(CO)NC(=O)c1cc(-c2ccc([N+](=O)[O-])cc2)[nH]n1`, the figure is 1875 µM; as for `O=C(NCCOCCO)c1cc(-c2ccc(Br)cc2)[nH]n1`, 10000 µM; as for `CC(O)CN(CC(C)O)C(=O)c1cc(-c2ccc([N+](=O)[O-])cc2)[nH]n1` (stereo not drawn), 1210 µM.
For `CC(O)CN(CC(C)O)C(=O)c1cc(-c2ccccc2)[nH]n1` (stereo not drawn) the value was 10 µM; for `O=C(c1cc(-c2ccc([N+](=O)[O-])cc2)[nH]n1)N(CCO)CCO`, 5600 µM.
For `O=Cc1cc(-c2ccc(Cl)cc2Cl)on1` the value was 390 µM.
The compound `O=C(NCCOCCO)c1cc(-c2cccc([N+](=O)[O-])c2)[nH]n1` yielded an IC50 of 9100 µM.
As for `O=C(NC(CO)(CO)CO)c1cc(-c2ccc([N+](=O)[O-])cc2)[nH]n1`, the figure is 5220 µM; as for `CN(CCO)C(=O)c1cc(-c2ccc([N+](=O)[O-])cc2)[nH]n1`, 2000 µM.
For the compound `CC(O)CNC(=O)c1cc(-c2ccccc2)[nH]n1` (stereo not drawn), the IC50 was determined as 60 µM.
`CC(O)CNC(=O)c1cc(-c2cccc([N+](=O)[O-])c2)[nH]n1` (stereo not drawn) registered an IC50 of 1830 µM.
For `CN(CCO)C(=O)c1cc(-c2cccc([N+](=O)[O-])c2)[nH]n1`, the IC50 is 790 µM.
As for `CC(O)CNC(=O)c1cc(-c2ccc([N+](=O)[O-])cc2)[nH]n1` (stereo not drawn), the figure is 2950 µM.
Compound `O=C(c1cc(-c2ccc(Br)cc2)[nH]n1)N(CCO)CCO` registered an IC50 of 1520 µM.
For `O=C(NCCO)c1cc(-c2ccc([N+](=O)[O-])cc2)[nH]n1`, the half-maximal inhibitory concentration (IC50) was 2700 µM.
As for `O=C(NCCCO)c1cc(-c2ccc([N+](=O)[O-])cc2)[nH]n1`, the figure is 3070 µM; as for `O=C(NCCCO)c1cc(-c2ccccc2)[nH]n1`, 540 µM.
As for `CC(CO)NC(=O)c1cc(-c2ccc(Br)cc2)[nH]n1` (stereo not drawn), the figure is 880 µM; as for `CC(CO)NC(=O)c1cc(-c2ccccc2)[nH]n1` (stereo not drawn), 3000 µM; as for `O=C(NCCOCCO)c1cc(-c2ccc([N+](=O)[O-])cc2)[nH]n1`, 2070 µM.
For `COc1ccc(-c2cc(C(=O)NCCOCCO)n[nH]2)cc1` the value was 6020 µM.
As to `O=C(NCCO)c1cc(-c2ccc(Br)cc2)[nH]n1`, the IC50 was 530 µM.
For `COc1ccc(-c2cc(C(=O)NCCO)n[nH]2)cc1` the value was 90 µM.
For `O=C(NCCO)c1cc(-c2ccccc2)[nH]n1` the value was 2800 µM.
The compound `COc1ccc(-c2cc(C(=O)N(C)CCO)n[nH]2)cc1` gave an IC50 of 410 µM.
For `O=C(NC(CO)(CO)CO)c1cc(-c2ccccc2)[nH]n1`, the concentration for half-maximal inhibition (IC50) is 940 µM.
For `O=C(NCCCO)c1cc(-c2cccc([N+](=O)[O-])c2)[nH]n1`, the IC50 is 780 µM.
As for `O=C(NCCO)c1cc(-c2cccc([N+](=O)[O-])c2)[nH]n1`, the figure is 760 µM.
